Here are results for 6 molecules from PubChem BioAssay AID1259411 (Chemical Carcinogenesis Research Information System (CCRIS), 2018).

Calls of active or inactive are those of the source. No rule for the calls is given here.

The subject of the series is rodent carcinogenicity bioassays, tumor incidence. The experiment in a line: CCRIS carcinogenicity studies. In outline:
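NCI-built, expert-reviewed records of carcinogenicity and related test outcomes (mutagenicity, tumor promotion/inhibition) compiled from published and report sources, historical span 1985-2011, not updated.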

Consider `CN(C)CCOc1ccc(/C(=C(/CCCl)c2ccccc2)c2ccccc2)cc1`, for which the carcinogen call by setting is: (Species: RAT, Strain/Sex: SPRAGUE-DAWLEY/FEMALE, Route: GAVAGE, Dose: 0, 12, 24 MG/KG IN 0.5% CARBOXYMETHYLCELLULOSE 1/D 7 D/WK FOR UP TO 12 MO (STUDY DURATION: 15 MO), Dose: 0, 12, 24 MG/KG IN 0.5% CARBOXYMETHYLCELLULOSE 1/D 7 D/WK FOR UP TO 12 MO (STUDY DURATION: 15 MO)) “inactive; negative”; (Species: RAT, Strain/Sex: SPRAGUE-DAWLEY/FEMALE, Route: ORAL, Dose: 0, 0.12, 1.2, 5, 12 MG/KG/D IN DIET FOR DURATION OF STUDY (STUDY DURATION: 104 WK), Dose: 0, 0.12, 1.2, 5, 12 MG/KG/D IN DIET FOR DURATION OF STUDY (STUDY DURATION: 104 WK)) “inactive; negative”; (Species: RAT, Strain/Sex: SPRAGUE-DAWLEY/MALE, Route: ORAL, Dose: 0, 0.12, 1.2, 5, 12 MG/KG/D IN DIET FOR DURATION OF STUDY (STUDY DURATION: 104 WK), Dose: 0, 0.12, 1.2, 5, 12 MG/KG/D IN DIET FOR DURATION OF STUDY (STUDY DURATION: 104 WK)) “inactive; negative”.
As for `CC(=O)Nc1ccc(-c2ccc(N(O)C(C)=O)cc2)cc1`, under “Species: RAT, Strain/Sex: STRAIN-CD/FEMALE, Route: INTRAPERITONEAL, Dose: 0, 10, 30 UMOL/KG IN TRIOCTANOIN 2/WK FOR 4 WK (TOTAL DOSES: 13.2, 40.0 UMOL) (STUDY DURATION: 46 WK), Dose: 0, 10, 30 UMOL/KG IN TRIOCTANOIN 2/WK FOR 4 WK (TOTAL DOSES: 13.2, 40.0 UMOL) (STUDY DURATION: 46 WK), Tumor Site: Type of Lesion: MAMMARY GLAND: FIBROADENOMA, ADENOCARCINOMA, EAR (ZYMBAL GLAND): ADENOMA OR CARCINOMA”, the carcinogen call is “active; positive”.
With `C/C=C/c1ccc(O)c(OC)c1`, the carcinogen call (Species: Mouse, Strain/Sex: B6C3F1 /Female (50/Group), Route: Oral, Dose: 0, 75, 150, 300 mg/kg in corn oil, by gavage, 5 d/wk for 2 yr, Dose: 0, 75, 150, 300 mg/kg in corn oil, by gavage, 5 d/wk for 2 yr) was “inactive; negative. (authors describe as equivocal evidence based on incidence of histiocy”; the carcinogen call (Species: Mouse, Strain/Sex: B6C3F1 /Male (50/Group), Route: Oral, Dose: 0, 75, 150, 300 mg/kg in corn oil, by gavage, 5 d/wk for 2 yr, Dose: 0, 75, 150, 300 mg/kg in corn oil, by gavage, 5 d/wk for 2 yr, Tumor Site: Type of Lesion: Liver: hepatocellular adenoma (24/50, 35/50, 37/50, 33/50), hepatocellular carcinoma (8/50, 18/50, 19/50, 18/50), hepato, Tumor Site: Type of Lesion: Liver: hepatocellular adenoma (24/50, 35/50, 37/50, 33/50), hepatocellular carcinoma (8/50, 18/50, 19/50, 18/50), hepato) is “active; positive. (authors describe as clear evidence)”; the carcinogen call (Species: Rat, Strain/Sex: F344/N / Female (50/Group), Route: Oral, Dose: 0, 75, 150, 300 mg/kg in corn oil, by gavage, 5 d/wk for 2 yr, Dose: 0, 75, 150, 300 mg/kg in corn oil, by gavage, 5 d/wk for 2 yr) is “inactive; negative”; the carcinogen call (Species: Rat, Strain/Sex: F344/N / Male (50/Group), Route: Oral, Dose: 0, 75, 150, 300 mg/kg in corn oil, by gavage, 5 d/wk for 2 yr, Dose: 0, 75, 150, 300 mg/kg in corn oil, by gavage, 5 d/wk for 2 yr) is “inactive; negative. (authors describe as equivocal evidence based on incidence of thymoma,”.
`Cn1c(CCCC(=O)O)nc2cc(N(CCCl)CCCl)ccc21`: the carcinogen call is “active; positive” (Species: MOUSE, Strain/Sex: AB/JENA/FEMALE, Route: INTRAPERITONEAL, Dose: 0, 12.5, 25 MG/KG IN 2 ML SALINE 1/D FOR 4 D FOR A TOTAL DOSE OF 0, 50, 100 MG/KG, Dose: 0, 12.5, 25 MG/KG IN 2 ML SALINE 1/D FOR 4 D FOR A TOTAL DOSE OF 0, 50, 100 MG/KG, Tumor Site: Type of Lesion: PERITONEUM: SARCOMA) and “active; positive” (Species: MOUSE, Strain/Sex: AB/JENA/FEMALE, Route: ORAL, Dose: 0, 62.5 MG/KG IN 0.25 ML WATER 1/D FOR 4 D FOR A TOTAL DOSE OF 0, 250 MG/KG, Dose: 0, 62.5 MG/KG IN 0.25 ML WATER 1/D FOR 4 D FOR A TOTAL DOSE OF 0, 250 MG/KG, Tumor Site: Type of Lesion: LUNG: ADENOMA).
On to `CCc1nc(N)nc(N)c1-c1ccc(Cl)cc1`, for which the carcinogen call (Species: MOUSE, Strain/Sex: B6C3F1/FEMALE, Route: ORAL, Dose: 0, 500, 1000 PPM IN DIET, Dose: 0, 500, 1000 PPM IN DIET) was “inactive; negative”; the carcinogen call (Species: RAT, Strain/Sex: F344/FEMALE, Route: ORAL, Dose: 0, 200, 400 PPM IN DIET 5 D/WK, Dose: 0, 200, 400 PPM IN DIET 5 D/WK) is “inactive; negative”; the carcinogen call (Species: RAT, Strain/Sex: F344/MALE, Route: ORAL, Dose: 0, 200, 400 PPM IN DIET 5 D/WK, Dose: 0, 200, 400 PPM IN DIET 5 D/WK) was “inactive; negative”.
With `c1ccc2c(c1)ccc1[nH]c3ccc4ccccc4c3c12`, the carcinogen call is, setting by setting: (Species: HAMSTER, Route: INTRATRACHEAL, Tumor Site: Type of Lesion: LUNG) “active; positive”; (Species: MOUSE, Route: DERMAL, Tumor Site: Type of Lesion: INTEGUMENTARY SYSTEM (SKIN), LIVER) “active; positive”; (Species: MOUSE, Route: INTRAVENOUS, Tumor Site: Type of Lesion: LUNG) “active; positive”; (Species: MOUSE, Route: ORAL, Tumor Site: Type of Lesion: FORESTOMACH, LIVER, LUNG, Tumor Site: Type of Lesion: FORESTOMACH, LIVER, LUNG) “active; positive”; (Species: MOUSE, Route: SUBCUTANEOUS, Tumor Site: Type of Lesion: INJECTION SITE, LUNG) “active; positive”; (Species: MOUSE, Strain/Sex: HSD:ICR(BR)/FEMALE, Route: DERMAL, Dose: 0, 50 NMOL IN 50 µL ACETONE 2/WK FOR 99 WK (STUDY DURATION: 99 WK), Tumor Site: Type of Lesion: SKIN: TUMOR, LIVER: TUMOR) “active; positive”. The carcinogen call is “active; positive” (Species: MOUSE, Strain/Sex: STRAIN-A/MALE, Route: INTRAPERITONEAL, Dose: 0, 5, 10, 20, 40 MG/KG BW IN 0.2 ML TRICAPRYLIN ONCE (STUDY DURATION: 8 MO), Dose: 0, 5, 10, 20, 40 MG/KG BW IN 0.2 ML TRICAPRYLIN ONCE (STUDY DURATION: 8 MO), Tumor Site: Type of Lesion: LUNG: ADENOMA) and “active; positive (historical controls only; reported incidence of liver tumors <2% at 2” (Species: Mouse, Strain/Sex: XVIInc/Z homozygous/Female (50 or 162/Group), Route: Subcutaneous, Dose: 3 x 0.3 mg (162 animals) or 34 x 0.05 mg (50 animals) dissolved in olive oil, Tumor Site: Type of Lesion: Liver: Hepatoma (100%), Sarcoma (70%)).
